The values below come from patent EP0369664B1, “Fish CRF” (THE SALK INSTITUTE FOR BIOLOGICAL STUDIES, priority 1988, dated 1994).

Like-named read-outs stand apart in the source and are kept apart here. No end group written: not given here.

For test [1], the system named is secretion of ACTH and β-endorphin. The following applies: reported; cited from earlier work.
For test [2] the following is noted: in mammals; reported; cited from earlier work.
Test [3] has as its system gastric acid production. The following applies: in vivo; cited from earlier work.
The test system of test [4] is secretion of ACTH and β-END-LI. Nature of the test: secretion of ACTH and β-END-LI, test system not specified.
A short description of test [5]: vasodilatory-hypotensive activity, lowering of systemic blood pressure. The class given is in vivo. The following applies: for vasodilatory-hypotensive activity: called mammalian for Example III only; for systemic blood pressure: in vivo.
Test [6] concerns cultured rat pituitary cells. Briefly: secretion of ACTH and β-endorphin by cultured rat pituitary cells. The class given is cell-based.
In test [7] the test system is pituitary-adrenalcortical axis. Nature of the test: stimulation of the pituitary-adrenalcortical axis and levels of pro-opiomelanocortin products. The settings on record: in vivo.
In test [8] the test system is ACTH and β-endorphin. Nature of the test: ACTH and β-endorphin activities in vitro and in vivo, general statement.
Test [9] is described as follows: blood pressure in the rat. The class given is in vivo.
For test [10], the system named is ACTH and β-END-LI secretion. Nature of the test: ACTH and β-END-LI secretion in vivo in several rat preparations.
The nature of test [11]: lowering of blood pressure, general statement. The class given is in vivo. The settings on record: for an extended time period.
In test [12] the test system is teleost fish pituitaries. Nature of the test: secretion of ACTH by teleost fish pituitaries. The class given is cell-based.
The nature of test [13]: activity and learning performance after administration into the ventricles. The class given is in vivo. The settings on record: rats, administered into the ventricles.
Test [14] in a line: blood pressure in the dog. The class given is in vivo.

With “oCRF: ovine corticotropin releasing factor, characterized in 1981, U.S. Patent No. 4,415,558 (H-SQEPPISLDLTFHLLREVLEMTKADQLAQQAHSNRKLLDIA-NH2; ends and bridges not checked; UniProt P01142 148-188, looked up)”, in [1], the “secretion of ACTH” value is given as “stimulating” and the “secretion of β-endorphin” value was “stimulating”. The blood pressure result in [2] is recorded as “lowering”. In test [3], the gastric acid production entry is “inhibits”.

On to “PPISLDLTFHLLREVLEMARAEQLAQQAHSNRKMMEIF-NH2 [III]”, for which the “secretion of ACTH” value in [4] is on record as “stimulates”. In test [5], the vasodilatory-hypotensive activity entry is given as “significant” and the systemic blood pressure result is recorded as “lowering”.

Sauvagine: in test [1], the “secretion of ACTH” value is “stimulating” and the “secretion of β-endorphin” value is given as “stimulating”. The blood pressure result in test [2] is “lowering”.

Take “Ac-SEEPPISLDLTFHLLREVLEMARAEQLAQQAHSNRKMMEIF-NH2 [II]”: in [4], the “secretion of ACTH” value was “stimulates” and the “secretion of β-END-LI” value was “stimulates”. Moreover, in [5], the vasodilatory-hypotensive activity entry is reported as “causes vasodilatory-hypotensive activity” and the systemic blood pressure entry is listed as “lowering”.

As for “SEEPPISLDLTFHLLREVLEMARAEQLAQQAHSNRKMMEIF-NH2 [Example I]”, in test [6], the “secretion of ACTH” value is listed as “stimulates” and the “secretion of β-endorphin” value is recorded as “stimulates”. In test [7], the “levels of ACTH, β-END, β-lipotropin, other pro-opiomelanocortin gene products and corticosterone” value is “elevates”; the pituitary-adrenalcortical axis entry was “profoundly stimulates”. Also, in test [8], the ACTH activies result was “stimulates” and the β-endorphin activies entry is “stimulates”. Also, the blood pressure entry in test [9] is recorded as “marked fall”. In test [10], the ACTH secretion result is “stimulates” and the β-END-LI secretion result is reported as “stimulates”. The blood pressure entry in [11] is on record as “substantially lowers”. Moreover, the “secretion of ACTH” value in [12] is listed as “stimulates”. In [13], the activity result is recorded as “increases” and the learning performance entry is recorded as “improves”. For the same substance, the blood pressure entry in test [14] is recorded as “sustained depression”.
